Each block holds one molecule with its values, some of them ahead of it.
Legend:
[1] = system: T cells (CD4+ and CD8+ subsets); assay: Vardenafil dose response of CD40L surface expression in T cells, CD4+ and CD8+ subsets; format: cell-based; set-up: key to SR: ratio of CD40L expression with vardenafil to expression without it; conditions: OT-001892 transduced T cells
Description: T cells were transduced with 10 μL of lentivirus corresponding to OT-001892. 4 days after transduction, cells were treated with increasing concentrations of ligand (Vardenafil) or vehicle control for 24 hours. Surface expression of CD40L in T cells as well as the CD4+ and CD8+ subsets was analyzed by FACS. The stabilization ratio (SR) may be defined as the ratio of expression, CD40L in response to vardenafil to the expression of CD40L in the absence of vardenafil.

T cells = assay: Dose response of TMP, Bazedoxifene or Raloxifene, % CD40L positive T cells; format: cell-based; conditions: T cells expressing OT-001666
Description: T cells were transduced with OT-001662 or OT-001666. On day 4, cells were treated with increasing doses of TMP for T cells expressing OT-001662. Cells expressing OT-001666 were treated either with increasing concentrations of Bazedoxifene or Raloxifene. The data are shown in Table 30 as the percentage of CD40L positive T cells.

[2] = system: T cells (CD4 and CD8 positive); assay: Bazedoxifene dose response, CD40L MFI in CD4 and CD8 positive T cells (day 4, freeze/thaw, restimulation); format: cell-based; conditions: T cells, Bazedoxifene dose response
Description: Dose response with Bazedoxifene in T cells were conducted for OT-001966, OT-001967, OT-001666. Expression of CD40L was measured at (a) day 4 after transduction, (b) after freezing and thawing the cells or (c) after freezing and thawing the cells followed by restimulation with CD3/CD28 beads. The CD40L MFI (median fluorescence intensity) within CD4 and CD8 positive subpopulations is shown in Table 34 and Table 35 respectively.

CD40 = CD40 (UniProt P25942); assay: cell-based or functional assay
Chain of CD40 (P25942 21-277 limits assumed): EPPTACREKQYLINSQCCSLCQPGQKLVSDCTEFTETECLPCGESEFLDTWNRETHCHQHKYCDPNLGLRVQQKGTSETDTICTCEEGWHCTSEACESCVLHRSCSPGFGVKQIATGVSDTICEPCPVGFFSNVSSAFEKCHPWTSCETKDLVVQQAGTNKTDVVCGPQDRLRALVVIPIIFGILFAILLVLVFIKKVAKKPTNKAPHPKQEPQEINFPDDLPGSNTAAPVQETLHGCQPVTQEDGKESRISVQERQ

T cells (CD4 and CD8) = assay: Cleavage resistant CD40L expression and TMP regulation in T cells; format: cell-based; conditions: T cells, 10 μM TMP 24 hours, CD4 and CD8 populations
Description: T cells were transduced with OT-001668 and on day 4, the percentage of CD40L expressing T cells (within the both CD4 and CD8) subpopulations was calculated.
T cells were transduced with ecDHFR regulated construct OT-001671 that include a CD40L protein that was resistant to cleavage. On day 4 cells were treated with 10 μM TMP for 24 hours. […] In an independent experiment, T cells transduced with varying volumes of virus corresponding to OT-001671 were treated with increasing doses of TMP for 24 hours. In Table 41, 0.5 μL, 2 μL, and 10 μL indicate the different volumes of virus that were used.

[3] = All Cells, Vardenafil 0.0001 μM
[4] = CD4+ Cells, Vardenafil 0.0001 μM
[5] = CD4+ Cells, Vardenafil 0.001 μM
[6] = CD8+ Cells, Vardenafil 0.0001 μM
[7] = CD8+ Cells, Vardenafil 0.001 μM

Molecule: CCCc1nc(C)c2c(=O)[nH]c(-c3cc(S(=O)(=O)N4CCN(CC)CC4)ccc3OCC)nn12 [Vardenafil]
MFI [1, 3]: 274
SR [1, 3]: 1.31
MFI ([1]; All Cells, Vardenafil 0.001 μM): 260
SR ([1]; All Cells, Vardenafil 0.001 μM): 1.24
MFI ([1]; All Cells, Vardenafil 0.01 μM): 265
SR ([1]; All Cells, Vardenafil 0.01 μM): 1.27
MFI ([1]; All Cells, Vardenafil 0.1 μM): 311
SR ([1]; All Cells, Vardenafil 0.1 μM): 1.49
MFI ([1]; All Cells, Vardenafil 1 μM): 405
SR ([1]; All Cells, Vardenafil 1 μM): 1.94
MFI ([1]; All Cells, Vardenafil 10 μM): 747
SR ([1]; All Cells, Vardenafil 10 μM): 3.57
MFI ([1]; All Cells, Vardenafil 100 μM): 1168
SR ([1]; All Cells, Vardenafil 100 μM): 5.59
MFI [1, 4]: 313
SR [1, 4]: 1.38
MFI [1, 5]: 291
SR [1, 5]: 1.28
MFI ([1]; CD4+ Cells, Vardenafil 0.01 μM): 304
SR ([1]; CD4+ Cells, Vardenafil 0.01 μM): 1.34
MFI ([1]; CD4+ Cells, Vardenafil 0.1 μM): 359
SR ([1]; CD4+ Cells, Vardenafil 0.1 μM): 1.58
MFI ([1]; CD4+ Cells, Vardenafil 1 μM): 482
SR ([1]; CD4+ Cells, Vardenafil 1 μM): 2.12
MFI ([1]; CD4+ Cells, Vardenafil 10 μM): 930
SR ([1]; CD4+ Cells, Vardenafil 10 μM): 4.10
MFI ([1]; CD4+ Cells, Vardenafil 100 μM): 1367
SR ([1]; CD4+ Cells, Vardenafil 100 μM): 6.02
MFI [1, 6]: 166
SR [1, 6]: 1.15
MFI [1, 7]: 166
SR [1, 7]: 1.15
MFI ([1]; CD8+ Cells, Vardenafil 0.01 μM): 162
SR ([1]; CD8+ Cells, Vardenafil 0.01 μM): 1.13
MFI ([1]; CD8+ Cells, Vardenafil 0.1 μM): 171
SR ([1]; CD8+ Cells, Vardenafil 0.1 μM): 1.19
MFI ([1]; CD8+ Cells, Vardenafil 1 μM): 186
SR ([1]; CD8+ Cells, Vardenafil 1 μM): 1.29
MFI ([1]; CD8+ Cells, Vardenafil 10 μM): 340
SR ([1]; CD8+ Cells, Vardenafil 10 μM): 2.36
MFI ([1]; CD8+ Cells, Vardenafil 100 μM): 620
SR ([1]; CD8+ Cells, Vardenafil 100 μM): 4.31

Molecule: Cc1c(-c2ccc(O)cc2)n(Cc2ccc(OCCN3CCCCCC3)cc2)c2ccc(O)cc12 [Bazidoxefene]
Percent of cells expressing CD40L (T cells; Dose 0.0001 μM): 4.88%
Percent of cells expressing CD40L (T cells; Dose 0.001 μM): 5.17%
Percent of cells expressing CD40L (T cells; Dose 0.01 μM): 5.42%
Percent of cells expressing CD40L (T cells; Dose 0.1 μM): 7.67%
Percent of cells expressing CD40L (T cells; Dose 1 μM): 13.5%

Molecule: O=C(c1ccc(OCCN2CCCCC2)cc1)c1c(-c2ccc(O)cc2)sc2cc(O)ccc12 [Raloxifene]
Percent of cells expressing CD40L (T cells; Dose 0.0001 μM): 4.67%
Percent of cells expressing CD40L (T cells; Dose 0.001 μM): 5.01%
Percent of cells expressing CD40L (T cells; Dose 0.01 μM): 5%
Percent of cells expressing CD40L (T cells; Dose 0.1 μM): 5.18%
Percent of cells expressing CD40L (T cells; Dose 1 μM): 7.1%

cell health [2]: affected cell health at highest dose
Molecule: Cc1c(-c2ccc(O)cc2)n(Cc2ccc(OCCN3CCCCCC3)cc2)c2ccc(O)cc12 [Bazedoxifene, reference compound]

IFNg (pg/ml), 2-day co-culture of transduced T cells with mDC, DMSO (DRD not stabilised) (CD40): 3790 pg/mL
IFNg (pg/ml), 2-day co-culture of transduced T cells with mDC, TMP (0.1 µM) (CD40): 7430 pg/mL
IFNg (pg/ml), 2-day co-culture of transduced T cells with mDC, TMP (0.5 µM) (CD40): 3590 pg/mL
IFNg (pg/ml), 2-day co-culture of transduced T cells with mDC, TMP (2 µM) (CD40): 16400 pg/mL
IFNg (pg/ml), 2-day co-culture of transduced T cells with mDC, TMP (10 µM) (CD40): 13500 pg/mL
IL12 (pg/ml), 2-day co-culture of transduced T cells with mDC, DMSO (DRD not stabilised) (CD40): 0.254 pg/mL
IL12 (pg/ml), 2-day co-culture of transduced T cells with mDC, TMP (0.1 µM) (CD40): 0.0705 pg/mL
IL12 (pg/ml), 2-day co-culture of transduced T cells with mDC, TMP (2 µM) (CD40): 19.4 pg/mL
IL12 (pg/ml), 2-day co-culture of transduced T cells with mDC, TMP (10 µM) (CD40): 59.3 pg/mL
SEAP reporter of HEK-Blue CD40 cells co-cultured 24 hours with transduced Jurkat cells plus 50 µM TMP, given as Soluble CD40L (pg/ml) against a recombinant soluble CD40L standard (CD40): 8660 pg/mL
TNFa (pg/ml), 2-day co-culture of transduced T cells with mDC, DMSO (DRD not stabilised) (CD40): 82.3 pg/mL
TNFa (pg/ml), 2-day co-culture of transduced T cells with mDC, TMP (0.1 µM) (CD40): 131 pg/mL
TNFa (pg/ml), 2-day co-culture of transduced T cells with mDC, TMP (0.5 µM) (CD40): 83.9 pg/mL
TNFa (pg/ml), 2-day co-culture of transduced T cells with mDC, TMP (2 µM) (CD40): 249 pg/mL
TNFa (pg/ml), 2-day co-culture of transduced T cells with mDC, TMP (10 µM) (CD40): 251 pg/mL
Molecule: OT-001662 (Met; Linker (SG); ecDHFR (M1del, R12Y, Y100I); Histidine residue; CD40L; stop) (ligand)

B1: OT-001671: ecDHFR regulated construct that includes a CD40L protein resistant to cleavage (protein)
chain: MSGISLIAALAVDYVIGMENAMPWNLPADLAWFKRNTLNKPVIMGRHTWESIGRPLPGRKNIILSSQPGTDDRVTWVKSVDEAIAACGDVPEIMVIGGGRVIEQFLPKAQKLYLTHIDAEVEGDTHFPDYEPDDWESVFSEFHDADAQNSHSYCFEILERRHMIETYNQTSPRSAATGLPISMKIFMYLLTVFLITQMIGSALFAVYLHRRLDKIEDERNLHEDFVFMKTIQRCNTGERSLSLLNCEEIKSQFEGFVKDIMLNKEETKKENDQNPQIAAHVISEASSKTTSVLQWAEKGYYTMSNNLVTLENGKQLTVKRQGLYYIYAQVTFCSNREASSQAPFIASLCLKSPGRFERILLRAANTHSSAKPCGQQSIHLGGVFELQPGASVFVNVTDPSQVSHGTGFTSFGLLKL
TMP-mediated regulation of CD40L expression (T cells (CD4 and CD8)): TMP-mediated Regulation of CD40L expression was observed

From US20220175781A1, “CD40L COMPOSITIONS AND METHODS FOR TUNABLE REGULATION” (Obsidian Therapeutics, Inc., priority 2019, published 2022)
